{"source": "ChEMBL document CHEMBL4393691", "about": "“Design, synthesis and antitumor evaluation of novel celastrol derivatives” (Eur J Med Chem, 2019)", "key": {"A549 [1]": {"tested_on": "A549", "assay": "Induction of apoptosis in human A549 cells assessed as viable cells at 0.2 uM incubated for 24 hrs by AnnexinV-FITC/propidium iodide/propidium iodide staining-based flow cytometric analysis (reference value: 88.1%)", "type": "functional", "details": "A549, 24 h, read-out: Activity"}, "A549 [2]": {"tested_on": "A549", "assay": "Cell cycle arrest in human A549 cells assessed as accumulation at G2 phase at 0.06 uM incubated for 12 hrs by propidium iodide staining based flow cytometry analysis (Rvb=11.7%)", "type": "functional"}, "A549 [3]": {"tested_on": "A549", "assay": "Cell cycle arrest in human A549 cells assessed as accumulation at S phase at 0.27 uM incubated for 12 hrs by propidium iodide staining based flow cytometry analysis (Rvb=38.46%)", "type": "functional"}, "A549 [4]": {"tested_on": "A549", "assay": "Induction of apoptosis in human A549 cells assessed as early apoptotic cells at 0.4 uM incubated for 24 hrs by AnnexinV-FITC/propidium iodide staining-based flow cytometric analysis (reference value: 4.1%)", "type": "functional"}, "A549 [5]": {"tested_on": "A549", "assay": "Induction of apoptosis in human A549 cells assessed as decrease in Cdk4 expression incubated for 8 hrs by western blot analysis", "type": "functional, cell-based"}, "A549 [6]": {"tested_on": "A549", "assay": "Induction of apoptosis in human A549 cells assessed as increase in caspase-3 expression incubated for 8 hrs by western blot analysis", "type": "functional, cell-based"}, "A549 [7]": {"tested_on": "A549", "assay": "Induction of apoptosis in human A549 cells assessed as late apoptotic cells at 1.2 uM incubated for 24 hrs by AnnexinV-FITC/propidium iodide staining-based flow cytometric analysis (reference value: 4.2%)", "type": "functional"}, "A549 [8]": {"tested_on": "A549", "assay": "Induction of apoptosis in human A549 cells assessed as early apoptotic cells at 0.2 uM incubated for 24 hrs by AnnexinV-FITC/propidium iodide/propidium iodide staining-based flow cytometric analysis (reference value: 4.1%)", "type": "functional"}, "A549 [9]": {"tested_on": "A549", "assay": "Cell cycle arrest in human A549 cells assessed as accumulation at G1 phase at 0.06 uM incubated for 12 hrs by propidium iodide staining based flow cytometry analysis (Rvb=49.49%)", "type": "functional"}, "A549 [10]": {"tested_on": "A549", "assay": "Induction of apoptosis in human A549 cells assessed as increase in Fas-L expression at 0.5 to 2 uM incubated for 8 hrs by western blot analysis", "type": "functional, cell-based"}, "A549 [11]": {"tested_on": "A549", "assay": "Cell cycle arrest in human A549 cells assessed as accumulation at S phase at 0.27 uM incubated for 24 hrs by propidium iodide staining based flow cytometry analysis (Rvb=27.61%)", "type": "functional"}, "A549 [12]": {"tested_on": "A549", "assay": "Induction of apoptosis in human A549 cells assessed as increase in cleaved caspase8 expression at 0.5 to 2 uM incubated for 8 hrs by western blot analysis", "type": "functional, cell-based"}, "A549 [13]": {"tested_on": "A549", "assay": "Induction of apoptosis in human A549 cells assessed as increase in Fas expression at 0.5 to 2 uM incubated for 8 hrs by western blot analysis", "type": "functional, cell-based"}, "A549 [14]": {"tested_on": "A549", "assay": "Cell cycle arrest in human A549 cells assessed as accumulation at G2 phase at 0.18 uM incubated for 12 hrs by propidium iodide staining based flow cytometry analysis (Rvb=11.7%)", "type": "functional"}, "A549 [15]": {"tested_on": "A549", "assay": "Induction of apoptosis in human A549 cells assessed as nuclear fragmentation at 0.06 to 0.18 uM incubated for 48 hrs by Hoechst 33342 staining-based fluorescence microscopy", "type": "functional, cell-based"}, "A549 [16]": {"tested_on": "A549", "assay": "Induction of apoptosis in human A549 cells assessed as early apoptotic cells at 1.2 uM incubated for 24 hrs by AnnexinV-FITC/propidium iodide staining-based flow cytometric analysis (reference value: 4.1%)", "type": "functional"}, "A549 [17]": {"tested_on": "A549", "assay": "Cell cycle arrest in human A549 cells assessed as accumulation at G0/G1 phase by propidium iodide staining based flow cytometric analysis", "type": "functional"}, "A549 [18]": {"tested_on": "A549", "assay": "Cell cycle arrest in human A549 cells assessed as accumulation at G1 phase at 0.27 uM incubated for 24 hrs by propidium iodide staining based flow cytometry analysis (Rvb=55.3%)", "type": "functional"}, "A549 [19]": {"tested_on": "A549", "assay": "Induction of apoptosis in human A549 cells assessed as necrotic cells at 0.4 uM incubated for 24 hrs by AnnexinV-FITC/propidium iodide staining-based flow cytometric analysis (reference value: 3.6%)", "type": "functional"}, "A549 [20]": {"tested_on": "A549", "assay": "Cell cycle arrest in human A549 cells assessed as accumulation at G1 phase at 0.18 uM incubated for 24 hrs by propidium iodide staining based flow cytometry analysis (Rvb=55.3%)", "type": "functional"}}, "note": "Active and inactive are the calls of the source. No cut-off for these calls is given here.", "data": [{"smiles": "COC(=O)/C=C\\c1ccc(OC)c(OCCOC(=O)[C@]2(C)CC[C@]3(C)CC[C@]4(C)C5=CC=C6C(=CC(=O)C(O)=C6C)[C@]5(C)CC[C@@]4(C)[C@@H]3C2)c1", "values": [{"measurement": "viability at 0.2 µM", "setting": "A549 [1]", "value": 77.7, "unit": "%"}, {"measurement": "Activity", "setting": "A549 [2]", "value": 12.14, "unit": "%"}, {"measurement": "Activity", "setting": "A549 [3]", "value": 35.25, "unit": "%"}, {"measurement": "Activity", "setting": "A549 [4]", "value": 10, "unit": "%"}, {"measurement": "Activity", "setting": "A549 [5]", "value": "Dose-dependent effect"}, {"measurement": "Activity", "setting": "A549 [6]", "value": "Active"}, {"measurement": "Activity", "setting": "A549 [7]", "value": 52.2, "unit": "%"}, {"measurement": "Activity", "setting": "A549 [8]", "value": 5.3, "unit": "%"}, {"measurement": "Activity", "setting": "A549 [9]", "value": 52.22, "unit": "%"}, {"measurement": "Activity", "setting": "A549 [10]", "value": "Dose-dependent effect"}, {"measurement": "Activity", "setting": "A549 [11]", "value": 23.55, "unit": "%"}, {"measurement": "Activity", "setting": "A549 [12]", "value": "Dose-dependent effect"}, {"measurement": "Activity", "setting": "A549 [13]", "value": "Dose-dependent effect"}, {"measurement": "Activity", "setting": "A549 [14]", "value": 10.44, "unit": "%"}, {"measurement": "Activity", "setting": "A549 [15]", "value": "Active"}, {"measurement": "Activity", "setting": "A549 [16]", "value": 11.3, "unit": "%"}, {"measurement": "Activity", "setting": "A549 [17]", "value": "Dose-dependent effect"}, {"measurement": "Activity", "setting": "A549 [18]", "value": 68.04, "unit": "%"}, {"measurement": "Activity", "setting": "A549 [19]", "value": 3.7, "unit": "%"}, {"measurement": "Activity", "setting": "A549 [20]", "value": 61.95, "unit": "%"}]}]}
